The test system of one assay is VEGF. Briefly: RT-PCR analysis of VEGF gene expression in 2774 ovarian cancer cell line. It counts as cell-based. As for the experimental part: (§1) A plasmid (pSecTaq2/Hygro A, Invitrogen) (2 μg/dish (100 mm dish)) that expresses the C-terminal domain (SEQ ID NO: 1), L-domain (SEQ ID NO: 2) and N-terminal domain (SEQ ID NO: 3) of IGFBP-5 was transfected into the 2774 ovarian cancer cell line using Lipofectamine 2000 (Invitrogen). The transfection was performed according to the method provided by Invitrogen.
(§2) At 24 hours after transfection, viable colonies were collected in DMEM (+10% FBS+penicillin and hygromycin) containing hygromycin (500 μg/ml), and then positive colonies were selected by a Western blot method using Myc antibody.
(§3) The […] cell line was treated overnight with various concentrations or 60 μg/ml of the peptides synthesized in Example 4, after which the cell line was additionally treated with fresh peptides for 7 hours. The cell line was treated for a total of 24 hours. Then, the cells were lysed with Trizol (Invitrogen), and RNA was isolated from the cells. cDNA was synthesized from the isolated […] using oligo dT and superscriptase III (Invitrogen), and then subjected to RT-PCR.
(§4) However, the PCR reaction using TNF-a primers was performed for 35 cycles at an annealing temperature of 57° C.

Another assay deals with IL-6. Briefly: RT-PCR analysis of IL-6 gene expression in 2774 ovarian cancer cell line. It is filed as cell-based. The protocol:
as §1, §2, §3, §4

For a further assay, the system named is TNF-α. The experiment in a line: RT-PCR analysis of TNF-alpha gene expression in 2774 ovarian cancer cell line. It counts as cell-based. The protocol: as §1, §2, §3, §4
Assay [1] has as its system HUVEC. The experiment in a line: Tube formation assay on Matrigel. It counts as cell-based, human. The following applies: 60 μg/ml peptide, 24 h pretreatment, 6 h on Matrigel; FIG. 6a. The protocol:
In order to examine the influence of each domain peptide of IGFBP-5 on the tube formation of HUVEC cells, HUVEC cells were plated onto a 6-well plate at a density of 1×10^5 cells/well, and then treated with 60 μg/ml of each of the peptides for 24 hours.
Before a tube formation assay, growth factor-reduced Matrigel (BD Bioscience) diluted to 1:2 with PBS was added to a 24-well plate in an amount of 300 μl/well, and then solidified at 37° C. for 1 hour. The HUVEC cells treated with each of the peptides for 24 hours were trypsinized, suspended in 300 μl of EGM medium (diluted to 1:3 with EBM medium) and treated with 60 μg/ml of a fresh peptide, and then the cells were incubated on the prepared Matrigel for 6 hours.

Assay [2] deals with HUVEC. The experiment in a line: Migration (scratch) assay. It is filed as cell-based, human. The following applies: 60 μg/ml peptide, 36 h pretreatment, overnight, FIG. 6b. As for the experimental part:
In order to examine the influence of each domain peptide of IGFBP-5 on the migration of HUVEC cells, HUVEC cells were seeded onto a 12-well plate at a density of 1×10^5 cells/well, and then treated with 60 μg/ml of each of the peptides for 36 hours. Specifically, the cells were treated with each of the peptides for 7 hours, and then treated overnight with a fresh peptide.
The plate was scratched with a 200-μl micropipette tip, and treated overnight with 60 μg/ml of a fresh peptide, after which the migration of the cells was observed. For this purpose, the cells were photographed under a microscope at 0 hour and the overnight time point. In addition, for a control group, cells were treated with PBS.

The subject of another assay is 2774-GFP cell line. The experiment in a line: Ovarian cancer animal model, intraperitoneal 2774-GFP cells. It is filed as in vivo, nude mouse. The following applies: 30 mg/kg intraperitoneally 8 times at intervals of 2-3 days, FIG. 7. As for the experimental part:
Each of 5-week-old nude mouse was intraperitoneally injected with 5×10^6 2774 cells that express GFP.
In this experiment, 8 mice were injected with the BP5-C peptide, and for a control group, 7 mice were injected with PBS.

Assay [3] concerns 2774 ovarian cancer cell line. The experiment in a line: Subcutaneous tumor growth of 2774 cell lines expressing IGFBP-5 truncation mutants. It is filed as in vivo, nude mouse. The following applies: nude mice injected subcutaneously with 2774 cells expressing the domain, compared to Vec/2774; FIGS. 2a, 2b. As for the experimental part:
A 5-week-old nude mouse subcutaneously injected with 1×10^6 cells that express the truncation mutant of IGFBP-5, and then the tumor volume of the mice was measured at intervals of 3-4 days. In this experiment, two mice were used for each of the cell lines, and each of the cell lines was injected into two points of each mouse. This experiment was repeated three times.

[4] abbreviates: 2774 cells treated with 60 μg/ml of each peptide, FIG. 5A.
Setting [5] is: 2774 cells treated with peptide at 30, 60 and 100 μg/ml, FIG. 3A.
Setting [6] is: 2774 cell line stably expressing the domain, FIG. 1B.

In the case of “BP2-C: C-terminal domain peptide of IGFBP-2 including IGF-1-binding domain, amino acids 228-245, KHGLYNLKQCKMSLNGQR (SEQ ID NO: 7) [reference compound]”, the “expression of VEGF gene” value in the assay with VEGF (setting [4]) was “no effect”. Besides, the “expression of IL-6 gene” value with IL-6 (setting [4]) is given as “no effect”. For the same molecule, in the assay on TNF-α (setting [4]), the “expression of TNF-α gene” value was “no effect”. For the same molecule, the “tube formation of HUVEC” value in the assay with HUVEC [1] is “no influence”. Moreover, in the assay with HUVEC [2], the “migration of HUVEC” value is on record as “did not inhibit”.
In the case of “BP5-mut: IGFBP-5 201-218 with G203A and Q209A mutations, RKAFYKRKACKPSRGRKR (SEQ ID NO: 5)”, the “expression of VEGF gene” value in the assay with VEGF (setting [4]) was “inhibited”. Further, the “expression of IL-6 gene” value in the assay on IL-6 (setting [4]) was “inhibited”. The “expression of TNF-α gene” value with TNF-α (setting [4]) is reported as “inhibited”. In addition, the “tube formation of HUVEC” value in the assay with HUVEC [1] is “inhibited”. The “migration of HUVEC” value in the assay with HUVEC [2] is “inhibited”.
Consider “BP5-C: amino acids 201-218 of IGFBP-5, RKGFYKRKQCKPSRGRKR (SEQ ID NO: 4)”, for which the “expression of VEGF gene” value in the assay with VEGF (setting [4]) and in the assay on VEGF (setting [5]) was “inhibited” in each case. The “expression of IL-6 gene” value with IL-6 (setting [4]) and with IL-6 (setting [5]) was “inhibited” each time. Moreover, the “tumor volume of collected tumors” value in the assay with 2774-GFP cell line (compared to animals injected with PBS) was “significantly reduced”. Besides, the tumor growth entry in the assay on 2774-GFP cell line (compared to control group (PBS)) is on record as “significantly inhibited”. For the same molecule, the “expression of TNF-α gene” value in the assay with TNF-α (setting [4]) and with TNF-α (setting [5]) was “inhibited” in each case. For the same molecule, the “tube formation of HUVEC” value in the assay with HUVEC [1] is “inhibited”. In addition, the “migration of HUVEC” value in the assay with HUVEC [2] was “inhibited”.
As to “BP2-HBD: heparin-binding domain derived from IGFBP-2, amino acids 171-188, KHHLGLEEPKKLRPPPAR (SEQ ID NO: 6) [reference compound]”, in the assay with VEGF (setting [4]), the “expression of VEGF gene” value is recorded as “no effect”. Further, in the assay with IL-6 (setting [4]), the “expression of IL-6 gene” value is on record as “no effect”. The “expression of TNF-α gene” value in the assay with TNF-α (setting [4]) is “no effect”. Besides, in the assay on HUVEC [1], the “tube formation of HUVEC” value was “no influence”. Also, the “migration of HUVEC” value with HUVEC [2] was “did not inhibit”.

B1: C-terminal domain: domain consisting of amino acids 169-252 of IGFBP-5 (SEQ ID NO: 1), stably expressed in 2774 cells (C/2774) (protein)
chain: QGPCRRHMEASLQELKASPRMVPRAVYLPNCDRKGFYKRKQCKPSRGRKRGICWCVDKYGMKLPGMEYVDGDFQCHTFDSSNVE
Regarding B1, in the assay on VEGF (setting [6]), the “expression of VEGF gene” value is recorded as “significantly inhibited”. For the same molecule, in assay [3], the “growth of cancer (tumor volume)” value is on record as “significantly inhibited”. Moreover, in the assay on IL-6 (setting [6]), the “expression of IL-6 gene” value was “significantly inhibited”. The “expression of TNF-a gene” value in the assay with TNF-α (setting [6]) was “significantly inhibited”.
